Where two headings read alike, the source gives them in different places.

In one experiment the test system is active caspases. Description: [125I]-M808 labeling of active caspases in rat tissue protein extracts. The format is binding. The protocol: Tissues (rat liver, kidney, brain, thymus, mouse thymus) were either frozen or processed within 20 minutes of their removal. Rat tissues and cultured cells were homogenized in ice cold cell lysis buffer (50 mM Tris-Cl pH 7.5, 2 mM EDTA, 1% NP-40) supplemented with 5 mM DTT and Complete protease inhibitor cocktail (Roche). Thymi from mice injected with [^125I]-M808 were homogenized in lysis buffer supplemented with 25 μM of M808. Nuclear debris was removed by centrifugation at 13000 rpm for 10 min and the soluble fraction quantitated by Bradford assay (Bio-Rad). Caspase-3 like activity was determined with the fluorogenic substrate Ac-DEVD-AMC as described by Roy et al. (2001) Proc. Nat. Acad. Sci. USA 98: 6132-6137.
The determination of caspase activity by [^125I]-M808 labeling was performed by pre-incubating purified recombinant human caspase-3 with indicated amounts of caspase inhibitor (M791) or vehicle (DMSO), for 1 hour at 25° C. in ICE buffer III (50 mM Hepes-KOH pH 7.0, 0.1% CHAPS, 10% sucrose, 2 mM EDTA), supplemented with 5 mM DTT. [^125I]-M808 was added to a final concentration of 1.25 μM and incubated for 5 min at 25° C. Active caspases in tissue or cell extracts were labeled by incubating 60-80 μg of lysate with [^125I]-M808 for 15 minutes at 25° C. […]

Another experiment relates to rat thymocytes. Description: DNA fragmentation (flow cytometry) in cultured rat thymocytes. The format is cell-based. The note with it: for IC50: Rattus norvegicus, Thymocyte. The protocol:
Rat thymocytes were cultured for 24 hours at a density of 10×10^6 cells/ml in CytoSF4 supplemented with 2 mM L-glutamine and penicillin-streptamycin and the indicated concentration of caspase inhibitors.
DNA fragmentation was determined by flow cytometry on 1.5×10^6 thymocytes or 500,000 Jurkat cells fixed for 30 min on ice in 80% EtOH. The cells were pelleted by centrifugation at 300 g for 10 min, suspended in PBS and incubated on ice for 45 min. […] Several dilutions were prepared for each sample to ensure that signal would be found within the assays linear range.

With `COc1ccc(-c2nc(C)no2)cc1CC(=O)N[C@H](C(=O)N[C@@H](CC(=O)O)C(=O)CSCc1ccccc1)C(C)C` [Example M791, (3S)-5-(benzylthio)-3-[(N-{[2-methoxy-5-(3-methyl-1,2,4-oxadiazol-5-yl)phenyl]acetyl}-L-valyl)amino]4-oxopentanoic acid], the “effect on [125I]-M808 labeling when added to extract prior to probe” value in the experiment with active caspases (granzyme-B treated rat tissue extracts, FIG. 2A lanes 6-9) is recorded as “No radiolabeling (lanes 6-8) or strongly reduced labeling (lane 9)”.

For the molecule `CCCCCN(C)CC(=O)[C@H](CC(=O)O)NC(=O)[C@H](CC)n1cc(C(C)(C)C)nc(NCc2nonc2C)c1=O` [Example M867, (3S)-3-({(2S)-2-[5-tert-butyl-3-{[(4-methyl-1,2,5-oxadiazol-3-yl)methyl]amino}-2-oxopyrazin-1(2H)-yl]butanoyl}amino)-5-[methyl(pentyl)amino]-4-oxopentanoic acid], the IC50 (commonly the concentration at which inhibition is half-maximal) in the experiment with rat thymocytes (cultured rat thymocytes, experiment of FIG. 5, read-out: IC50, inhibition of DNA fragmentation) worked out at 240 nM; with rat thymocytes (cultured thymocytes, N. Methot et al., in press, p<0.01 vs spectrin cleavage, read-out: IC50, inhibition of DNA fragmentation) it was 270 nM; in the experiment on rat thymocytes (five independent experiments, read-out: DNA fragmentation IC50), 270 nM. In addition, in the experiment with rat thymocytes (ratio of IC50s), the “M867 required to inhibit DNA fragmentation compared to spectrin cleavage” value is given as “Three-fold”.

`COc1ccc(I)cc1CC(=O)N[C@H](C(=O)NC(CC(=O)O)C(=O)CF)C(C)C` (stereo partly drawn) [[^125I]-M808, 5-fluoro-3-({N-[(5-iodo-2-methoxyphenyl)acetyl]-L-valyl}amino)-4-oxopentanoic acid]: the “recognition of active caspases in injured tissue extracts” value with active caspases (HI neonatal rat brain, infarcted rat heart, septic rat thymi extracts) is recorded as “specifically recognizes active caspases in several types of injured tissues”.

These data come from patent US20060069038A1, “Irreversible caspase-3 inhibitors as active site probes” (priority 2003, published 2006).
